Experimental data taken from patent US20190111040A1, “IN VIVO AMELIORATION OF ENDOGENOUS ANTI-TUMOR AUTOANTIBODIES TARGETING SURFACE TUMOR ANTIGENS VIA LOW-DOSE P4N” (THE JOHNS HOPKINS UNIVERSITY, priority 2016, published 2019).
Counter-ions that a name gives are not always drawn.

Columns and labels:
[1] = test system: CT26 tumors; test: Immunohistochemical staining of tumors after P4N; type: in vivo, mice
Text: Immunohistochemical staining. Tumors isolated from P4N and vehicle-treated mice were embedded in paraffin and thin sections were made and processed for immunohistochemical staining. The sections were probed with rat monoclonal anti-F4/80 (1:50 dilution; GeneTex, Irvine, Calif.) and anti-CD20 (1:200 dilution; Santa Cruz Biotechnology, Dallas, Tex.), hamster monoclonal anti-CD11c (1:25 dilution; GeneTex), rabbit monoclonal anti-CD3 (1:50 dilution; GeneTex), rabbit polyclonal anti-TNF-α and anti-IL-8 antibody (1:50 dilution; Assay BioTech. Sunnyvale, Calif.) at 4° C. overnight, and the detection antibodies were recognized using a horseradish peroxidase (HRP)-conjugated anti-rat, anti-hamster, or anti-rabbit IgG antibody (1/1,500 dilution; Santa Cruz Biotechnology). The immune complexes in the sections were visualized using the LSAB2 system (DAKO, Carpinteria, Calif.). The sections were counterstained with hematoxylin, mounted, observed under a light microscope at a magnification of 400×, and photographed.

[2] = test system: mouse splenocytes; test: Effect of P4N on B cell lineage in mouse splenocytes in vitro; type: cell-based
Description: The effect of P4N on changes in B cell lineage in vitro. Single cell suspensions of mouse splenocytes were obtained by grinding the spleens from healthy mice. The suspended splenocytes were treated with or without 0.1 or 0.2 μM of P4N for 48 h, and the percentage of naïve B cells, activated B cells, B1 cells or Breg cells were measured after staining with the following fluorochrome conjugates using flow cytometry (BD Biosciences): anti-CD19-FITC, anti-CD-23-APC, anti-CD-38-APC, anti-CD5-PE or anti-CD1d-Alexa 647 (BioLegend, San Diego, Calif.). The cell types were defined as follows: naïve B cells (CD19+CD23+), activated B cells (CD19+CD38+), B1 cells (CD19+CD5+) and Breg cells (CD19+CD5+CD1d+). The indices of different types of B cell proliferation were calculated as follows: (the number of splenocytes×the percentage of each B cell population in treated splenocytes)/(the number of splenocytes×the percentage of each B cell population in untreated splenocytes).

[3] = test system: Human B or T cells; test: Proliferation of isolated human B or T cells, MTT assay; type: cell-based
Description: FIG. 10 depicts the effects of P4N on cell proliferation. Human B or T cells were isolated from the PBMCs by negative selection using a magnetic sorting device (Miltenyi Biotec, Auburn, Calif.). Cell proliferation was determined by an MTT assay.
Total B-cells were isolated from human PBMCs or mouse splenocytes by negative selection using a magnetic sorting device (Miltenyi Biotec, Auburn, Calif.). Briefly, PBMCs were incubated with a cocktail of biotin-conjugated antibodies, followed by microbead-conjugated anti-biotin Abs for magnetic depletion. B-cells were eluted according to the manufacturer's protocols. Human blood samples were collected from healthy individuals following an IRB-approved protocol and in agreement with the Committee for Research Ethics Board of Chung Shan Medical University Hospital.

[4] = test system: THP-1 cells; test: Cytokine and chemokine production of P4N treated THP-1, Bio-Plex and ELISA; type: cell-based, human
Description: THP-1 cells were treated with 3 μM of P4N or the vehicle control (NC) for 24 h. Supernatants were collected and analyzed using the Bio-Plex assay for human cytokines. Shown are the concentrations of 27 human cytokines for each treatment from three independent experiments. The levels of IL-2, IL-4, IL-6, IL-7, IL-9, IL13, IL-15, Eotaxin, G-CSF, IFN-γ and PDGF-bb were undetectable.
FIG. 13 provides graphs showing P4N-induced pro-inflammatory cytokine production in THP-1 cells. THP-1 cells were treated with 3 μM P4N for different lengths of time, Cell supernatants were collected and TNF-α, IL-1β and IL-8 quantitated by ELISA. All results are the mean of three independent experiments (n=6).

[5] = test system: THP-1 cells; test: Activin A and BAFF mRNA and protein in THP-1 cells, RT-PCR and ELISA; type: cell-based
Description: (§1) FIGS. 5A-5F depict the expression of Activin A/BAFF induced by P4N treatments. (A) P4N induced Activin A or BAFF expression in human PBMCs as determined by RT-PCR. S1-S5 display different individual blood samples collected from 5 different human donors; N, no treatment; P, P4N-treatment (3 μM). The change in Activin A and BAFF expression (mean of 5 patients) relative to the control (NC) is plotted as a histogram (B) The effect of increasing dosages of P4N for 12 h on mRNA and protein levels of Activin A or BAFF in THP-1 cells was analyzed by RT-PCR and ELISA. (C) The effect of 6 μM P4N on mRNA and protein levels of Activin A or BAFF in THP-1 cells was determined at a different time period. (D) The effect of different inhibitors on Activin A-induced BAFF expression was examined. The expression of BAFF mRNA in inhibitor-treated THP-1 cells was determined by RT-PCR, and (E) BAFF protein secretion was measured by ELISA. (F) The effect of THP-1 conditioned media on the proliferation of Raji cells and OKT3 hybridoma cells were determined. Media were harvested, in which THP-1 cells were pre-treated without inhibitor (2) or with SB431542 (3), A83-01 (4), SIS3 (5), SB203580 (6) or PD98059 (7) and then treated with P4N for 12 h. The results are expressed as % viable cells relative to the control (NC, media from untreated THP-1 cells). All values are the means of triplicate samples±SEM. The significant differences in the results of inhibitor and P4N-treated groups compared with the untreated group are indicated by ***P<0.001.
Reverse transcription PCR. Human PBMCs or THP-1 cells were treated with P4N, and then the mRNA expression of INHBA and BAFF in these cells was measured by reverse transcription PCR. Briefly, total cellular RNA was extracted with Trizol reagent (Invitrogen) and reverse-transcribed into cDNA using the Superscript RT-kit (Invitrogen). The cDNA of INHBA and BAFF were then amplified by PCR. GAPDH cDNA in the samples was used to normalize the loading amounts in each reaction. […]

[6] = test system: Raji or OKT3 cells; test: Cell proliferation assay with THP-1-conditioned media; type: cell-based; details: conditioned medium from THP-1 cells treated with P4N, 48 h, MTT
Description: as §1
Cell proliferation assay. Raji or OKT3 cells (1×10^4/well) were seeded and treated with THP-1-conditioned media. After 48 h the number of viable cells was determined by MTT assay. The indices of cell proliferation were calculated as previously described.

[7] = THP-1 monocytes, 3 μM P4N, ELISA

Structure (SMILES): C[C@H](Cc1ccc(OCCN2CCCCC2)c(OCCN2CCCCC2)c1)[C@@H](C)Cc1ccc(OCCN2CCCCC2)c(OCCN2CCCCC2)c1 [P4N, meso-2,3-dimethyl-1,4-bis(3,4-[2-(piperidino)ethoxyphenyl])butane tetrakishydrochloride salt]
- expression levels of TNF-α and IL-8 in tumors ([1]; 5 mg/kg intratumoral, day 7, both strains of mice): enhanced the expression levels
- infiltration of immune cells (macrophages, DC, T or B cells) into the tumor area ([1]; single intratumoral injection 5 mg/kg, day 7, IHC): led to the infiltration of immune cells
- total B cell proliferation in mouse splenocytes ([2]; 48 h): increased total B cell proliferation
- number of activated B cells ([2]; absence of antigen stimulation): had no effect
- proliferation of T-cell-depleted PBMCs [3]: increased the proliferation
- proliferation of isolated T cells or B cells [3]: did not induce the proliferation
- levels of IL-2, IL-4, IL-6, IL-7, IL-9, IL13, IL-15, Eotaxin, G-CSF, IFN-γ and PDGF-bb ([4]; THP-1, 3 μM P4N, 24 h): undetectable
- expression of pro-inflammatory cytokines and chemokines ([4]; THP-1, 3 μM P4N, 24 h, Bio-Plex): increased the expression
- time of stimulated IL-8 release [4, 7]: ≥ 8 h
- time to induction of TNF-α and IL-1β expression [4, 7]: ≤ 4 h
- time of elevated BAFF expression ([5]; THP-1, 6 μM P4N): 8 h
- time of up-regulated mRNA expression of Activin A ([5]; THP-1, 6 μM P4N): 2 h
- dose dependence of Activin A and BAFF mRNA and protein levels ([5]; THP-1, increasing dosages of P4N, 12 h): dose-dependent manner
- proliferation of Raji or OKT3 cells [6]: increased the proliferation
